From patent US9693974B2, “Antibacterial and antifungal biphenylyl compounds” (CHRISTIAN-ALBRECHTS-UNIVERSITY OF KIEL, priority 2010, dated 2017)
In brackets after ≈: the same amount, converted by molar mass. Counter-ions that a name gives are not always drawn. Like-named read-outs stand apart in the source and are kept apart here.

Experiments:
Experiment in all cases: MIC, Bouillon-microdilution method (CLSI M07-A8)
Type in all cases: cell-based
[1] = tested on: methicillin-resistant Staphylococcus aureus ATCC 33592; settings: for MIC: ATCC 33592 / MRSA, read-out: MIC values MRSA
Method: (§1) The respective determination is valid if in the growth control (DMSO and medium) a distinct turbidity is observed.
(§2) The minimum inhibitory concentrations of the substances of the present inventions against various infectious germs, i.a. against methicillin-resistant Staphylococcus aureus were determined with the Bouillon-microdilution method in accordance with the procedure M07-A8 of the Clinical and Laboratory Standards Institute (Pennsylvania, USA).
(§3) (Source: German Collection of Microorganisms and Cell Cultures, Braunschweig) Enterococcus hirae ATCC 10541, Staphylococcus epidermidis ATCC 12228, Staphylococcus aureus ATCC 6538, methicillin-resistant Staphylococcus aureus ATCC 33592, Bacillus cereus ATCC 11778, Candida albicans ATCC 10231, Aspergillus niger ATCC 16404, Aspergillus fumigatus ATCC 9197.
(§4) In sterile tubes with titled agar, bacteria with casein peptone soy flour peptone agar (Merck, Art. No. 1.05458.05), incubation 18-24 h at 34° C., fungi with Sabouraud 4% Glucose Agar (Merck 1.05438.05), incubation Candida albicans 18-24 h at 34° C., mold fungous 7 days at 22° C.
(§5) Suspensions are produced on titled agar by floating with 0.9% sterile NaCl solution. The turbidity is adjusted photometrically by dilution according to the turbidity of the Mc Farland-standard 0.5.
(§6) Subsequently, the bacterial suspensions are diluted in the ratio of 1:10, the Pi-suspension of the fungi remains undiluted.
(§7) The number of the germs in the inocula is adjusted so that there are approximately 5×10^5 colony forming units per milliliter after inoculation of the test wells.
(§8) The amount of a substance to be tested in a trial is weighed out on a microbalance with an Eppendorf reaction vessel and dissolved in an appropriate volume of dimethyl sulfoxide so that the concentration of the resulting solution corresponds to the 21 times highest final test concentration. The stock solution is subsequently diluted in a serial in a ratio respectively 1 ad 2 with DMSO resulting in seven different concentrations in the wells of a predilution plate. In the eighth well only DMSO is pipetted.
(§9) In each of the 96 wells of a test plate 95 μl sterile Mueller Hinton II medium (Cation adjusted, BBL™ Ref. 212322) for bacteria and sterile Sabouraud 2% glucose medium (DIFCO™ Ref 238230) for fungis are added with an eight-channel pipette (Socorex 50-200 μL). 5 μL of the solution to be tested are pipetted in each of the test wells of the plate (8-channel pipette, Eppendorf-Research, 5-10 μL). They are transferred in this way from the pre-dilutions that in the horizontal row A the highest concentration and respectively a half reduced concentration of the substance to be tested until row G and in row H only DMSO is pipetted. Subsequently, 5 μL of the inocula are pipetted in the test wells using an eight-channel pipette. In one test at least two, maximum four rows are inoculated with the same substance and the same germs. The concentrations of the test substance are each 128 μg/mL to 2 μg/mL.
(§10) The prepared plates are converted to a microtiter plate reader (Anthos ht111) which is connected to a printer. In this device, the plates are shaken for 60 seconds with high frequency before each measurement and the absorption of the probes is measured at the wavelength of light of 590 nm.
(§11) After determination of the initial values the plates are incubated at 34° C. for 16 to 20 h for bacteria and Candida albicans, and 68 to 72 h at 34° C. for mould fungis.
(§12) Following this the micro titer plates are measured again as described above.
(§13) The minimum inhibitory concentration is the lowest concentration of the tested substance which is able to inhibit the complete growth of the particular test organism, i.e. where after incubation no turbidity is measurable. The particular determination is valid when in the growth control (DMSO and medium) a distinct turbidity is observed.

[2] = tested on: Staphylococcus aureus ATCC 6538; settings: for MIC: Staphylococcus aureus
Method: as §1, §2, §3, §4, §5, §6, §7, §8, §9, §10, §11, §12, §13

[3] = tested on: Candida albicans ATCC 10231
Method: as §1, §2, §3, §4, §5, §6, §7, §8, §9, §10, §11, §12, §13

[4] = tested on: Aspergillus niger ATCC 16404; settings: ATCC16404, read-out: MIC values A.n.
Method: as §1, §2, §3, §4, §5, §6, §7, §8, §9, §10, §11, §12, §13

[5] = tested on: Aspergillus fumigatus ATCC 9197; settings: ATCC9197, read-out: MIC values A.f.
Method: as §1, §2, §3, §4, §5, §6, §7, §8, §9, §10, §11, §12, §13

[6] = tested on: Enterococcus hirae ATCC 10541; settings: ATCC10541, read-out: MIC values E.h.
Method: as §1, §2, §3, §4, §5, §6, §7, §8, §9, §10, §11, §12, §13

[7] = tested on: Staphylococcus epidermidis ATCC 12228; settings: ATCC12228, Staphylococcus epidermis, read-out: MIC values S.e.
Method: as §1, §2, §3, §4, §5, §6, §7, §8, §9, §10, §11, §12, §13

Pseudomonas aeroginosa = settings: read-out: MIC values P.a.
Method: as §1, §2, §4, §5, §6, §7, §8
as §9, with “Subsequently, 5 μL of the inocula are pipetted in the test wells using an eight-channel pipette. In one test at least two, maximum four rows are inoculated with the same substance and the same germs. The concentrations of the test substance are each 128 μg/mL to 2 μg/mL.” left out
(§14) The prepared plates are converted to a microtiter plate reader (Anthos ht111) which is connected to a printer. In this device, the plates are shaken for 60 seconds with high frequency before each measurement and the absorption of the probes is measured at the wavelength of light of 590 nm. […]
(§15) Following this the micro titer plates are measured again as described above. […]

Escherichia coli = settings: read-out: MIC values E.c.
Method: as §1, §2, §4, §5, §6, §7, §8
as §9, with “Subsequently, 5 μL of the inocula are pipetted in the test wells using an eight-channel pipette. In one test at least two, maximum four rows are inoculated with the same substance and the same germs. The concentrations of the test substance are each 128 μg/mL to 2 μg/mL.” left out
as §14, §15

[8] = methicillin-resistant Staphylococcus aureus, number of tests in brackets
[9] = ATCC6538, number of tests in brackets, rounded average of logarithmic endpoints, read-out: MIC values S.a.

## CN(C)[C@@H]1C(=O)C(C(N)=O)=C(O)[C@@]2(O)C(=O)C3=C(O)c4c(O)cccc4[C@@](C)(O)[C@H]3C[C@@H]12 [Tetracyclin, reference compound]
[1]; [8]
  MIC values MRSA: 64 µg/mL (≈ 144 µM)

## Cl.O=C(CCCN1CCN(c2ccccc2)CC1)c1ccc(-c2ccc(Br)cc2)cc1 [4′-(4-bromophenyl)-4-(N-phenylpiperazino)butyrophenone-hydrochloride, reference compound]
[2]; also after addition of higher concentrations
  MIC value / growth inhibition of Staphylococcus aureus (result in words): did not inhibit the growth

## CN(C)CCCCc1ccc(-c2ccc(Br)cc2)cc1 [GG28, 4-bromo-4′-(4-dimethylaminobutyl) biphenyl hydrochloride]
[3]; ATCC10231, read-out: MIC values C.a. (Yeast)
  MIC: 8 µg/mL
[2]; ATCC6538, read-out: MIC values S.a.
  MIC: 13 µg/mL
[1]; Staphylococcus aureus
  MIC: 18 µg/mL

## CN(C)CCCCC(=O)c1ccc(-c2ccc(Br)cc2)cc1.Cl [GG20-5]
[3]; ATCC10231, Candida albicans, number of tests in brackets, read-out: MIC values C.a. (Yeast)
  MIC: 8 µg/mL
[2]; [9]
  MIC: 16 µg/mL
[1]; [8]
  MIC: 16 µg/mL

## CN(C)CCCC(=O)c1ccc(-c2ccc(Br)cc2)cc1.Cl [GG20-4, 4′-(4-bromophenyl)-4-dimethylaminobutyrophenone-hydrochloride]
[2]; [9]
  MIC: 4 to 8 µg/mL
[1]; [8]
  MIC: 8 µg/mL
[4]
  MIC: 64 µg/mL
[5]
  MIC: 8 µg/mL
[6]
  MIC: 16 µg/mL
[7]
  MIC: 4 µg/mL
Pseudomonas aeroginosa
  MIC: > 64 µg/mL
Escherichia coli
  MIC: > 64 µg/mL

## CN[C@H](CC(C)C)C(=O)N[C@H]1C(=O)N[C@@H](CC(N)=O)C(=O)N[C@H]2C(=O)N[C@H]3C(=O)N[C@H](C(=O)N[C@H](C(=O)O)c4cc(O)cc(O)c4-c4cc3ccc4O)[C@H](O)c3ccc(c(Cl)c3)Oc3cc2cc(c3O[C@@H]2O[C@H](CO)[C@@H](O)[C@H](O)[C@H]2O[C@H]2C[C@](C)(N)[C@H](O)[C@H](C)O2)Oc2ccc(cc2Cl)[C@H]1O [Vancomycin, reference compound]
[1]; Staphylococcus aureus
  MIC: < 2 µg/mL

## CN(C)CCC(=O)c1ccc(-c2ccc(Br)cc2)cc1.Cl [GG20-3, reference compound]
[2]; [9]
  MIC: 32 µg/mL
[1]; [8]
  MIC: 32 µg/mL
[7]
  MIC: 16 µg/mL
Pseudomonas aeroginosa
  MIC: > 64 µg/mL
Escherichia coli
  MIC: > 64 µg/mL
